In patent US20080113014A1, “Method for Screening for Compounds Safe for Gastric Mucosa” (LTT BIO-PHARMA CO., LTD., priority 2004, published 2008):

Tests used:
gastric mucosal cells = experiment: Cytotoxicity of NSAIDs to gastric mucosal cells; type: cell-based; conditions: order among the five NSAIDs of the same figure (FIG. 3 or FIG. 4)
Source text: Specifically, the cytotoxicity of 10 clinically used NSAIDs as measured by the decrease in cell viability (i.e., cytotoxicity due to necrosis/apoptosis as measured by the decrease in cell viability) was compared to their membrane toxicity determined by the liposome model.

[1] = Calcein leakage from calcein-encapsulating liposome in the presence of NSAIDs (membrane toxicity); conditions: 30° C., 10 min, fluorescence at 520 nm; order among the five NSAIDs of the same figure
[2] = Calcein leakage from liposome in the presence of an NSAID and the gastric mucosa-protecting agent teprenone; conditions: for calcein leakage from liposome in the presence of NSAID and teprenone: teprenone 0, 10^-7 to 10^-4 M, 30° C., 10 min
Procedure: Teprenone (product name, Selbex (registered trademark)) was used as the gastric mucosa-protecting agent and was used at concentrations of 0 M (Control), 10^−7 M, 10^−6 M, 10^−5 M and 10^−4 M.
Each NSAID and teprenone at respective concentrations were added to the liposome solution obtained in Example 1. Each solution was incubated at 30° C. for 10 min. Subsequently, the fluorescence at 520 nm was measured for each solution to determine the calcein leakage from liposome (i.e., membrane toxicity).

Cc1ccc(-c2cc(C(F)(F)F)nn2-c2ccc(S(N)(=O)=O)cc2)cc1 [celecoxib]
cytotoxicity to gastric mucosal cells (rank order) (gastric mucosal cells): celecoxib>mefenamic acid>flufenamic acid>nimesulide>etodolac

O=C(O)Cc1ccccc1Nc1c(Cl)cccc1Cl [diclofenac]
cytotoxicity to gastric mucosal cells (rank order) (gastric mucosal cells): indomethacin>diclofenac>flurbiprofen>ibuprofen>ketoprofen

CCc1cccc2c3c([nH]c12)C(CC)(CC(=O)O)OCC3 (stereo not drawn) [etodolac]
cytotoxicity to gastric mucosal cells (rank order) (gastric mucosal cells): celecoxib>mefenamic acid>flufenamic acid>nimesulide>etodolac

O=C(O)c1ccccc1Nc1cccc(C(F)(F)F)c1 [flufenamic acid]
cytotoxicity to gastric mucosal cells (rank order) (gastric mucosal cells): celecoxib>mefenamic acid>flufenamic acid>nimesulide>etodolac | calcein leakage from the liposome (membrane toxicity), rank order [1]: decreased in the same order

CC(C(=O)O)c1ccc(-c2ccccc2)c(F)c1 (stereo not drawn) [flurbiprofen]
cytotoxicity to gastric mucosal cells (rank order) (gastric mucosal cells): indomethacin>diclofenac>flurbiprofen>ibuprofen>ketoprofen

COc1ccc2c(c1)c(CC(=O)O)c(C)n2C(=O)c1ccc(Cl)cc1 [indomethacin]
cytotoxicity to gastric mucosal cells (rank order) (gastric mucosal cells): indomethacin>diclofenac>flurbiprofen>ibuprofen>ketoprofen

CC(C(=O)O)c1cccc(C(=O)c2ccccc2)c1 (stereo not drawn) [ketoprofen]
calcein leakage from the liposome (membrane toxicity), rank order [1]: decreased in the same order

Cc1cccc(Nc2ccccc2C(=O)O)c1C [mefenamic acid]
cytotoxicity to gastric mucosal cells (rank order) (gastric mucosal cells): celecoxib>mefenamic acid>flufenamic acid>nimesulide>etodolac

CS(=O)(=O)Nc1ccc([N+](=O)[O-])cc1Oc1ccccc1 [nimesulide]
cytotoxicity to gastric mucosal cells (rank order) (gastric mucosal cells): celecoxib>mefenamic acid>flufenamic acid>nimesulide>etodolac

teprenone
calcein leakage from liposome in the presence of NSAID and teprenone (repeat experiment) ([2]; 0.05 mM and 0.1 mM celecoxib): reduced the calcein leakage from the liposome | calcein leakage from liposome in the presence of NSAID and teprenone ([2]; 0.08 mM celecoxib): the calcein leakage decreases as the amount of teprenone is increased | calcein leakage from liposome in the presence of NSAID and teprenone (repeat experiment) ([2]; 2 mM and 10 mM diclofenac): reduced the calcein leakage from the liposome | calcein leakage from liposome in the presence of NSAID and teprenone (repeat experiment) ([2]; 4 mM and 8 mM indomethacin): reduced the calcein leakage from the liposome | calcein leakage from liposome in the presence of NSAID and teprenone ([2]; 4 mM diclofenac): the calcein leakage decreases as the amount of teprenone is increased | calcein leakage from liposome in the presence of NSAID and teprenone ([2]; 6 mM indomethacin): the calcein leakage decreases as the amount of teprenone is increased | calcein leakage from liposome in the presence of NSAID and teprenone ([2]; 20 mM ibuprofen): the calcein leakage decreases as the amount of teprenone is increased | calcein leakage from liposome in the presence of NSAID and teprenone (repeat experiment) ([2]; 40 mM and 60 mM ibuprofen): reduced the calcein leakage from the liposome
